Earlier results, collected in patent US8901128B2, “Pharmaceutical compositions of ranolazine” (Lupin Limited, priority 2009, dated 2014).

Key:
[1] = test system: humans suffering from angina; conditions: administered as an IR formulation; 120 mg three times daily
[2] = in vivo
[3] = low pH that occurs in the stomach

plasma half-life [2]: relatively short | solubility [3]: relatively high
SMILES: COc1ccccc1OCC(O)CN1CCN(CC(=O)Nc2c(C)cccc2C)CC1 (racemic) [ranolazine, (±)-N-(2,6-dimethylphenyl)-4-[2-hydroxy-3-(2-methoxyphenoxy)-propyl]-1-piperazineacetamide]
antianginal and anti-ischemic efficacy [1]: ineffective
